Results from ChEMBL document CHEMBL4680353, “Synthesis, anticancer activity and molecular docking studies of N-deacetylthiocolchicine and 4-iodo-N-deacetylthiocolchicine derivatives” (Bioorg Med Chem, 2021).
Activity calls are given as the source filed them. The calls are words filed in the database; no cut-off is given here.

What was measured:
[1] = Antiproliferative activity against human ALL5 cells incubated for 120 hrs followed by MTT addition further incubated for 48 hrs; type: functional, cell-based
[2] = Resistance index, ratio of IC50 for antiproliferative activity against human Lovo/DX cells to IC50 for antiproliferative activity against human LoVo cells; type: functional
[3] = cells; type: functional, cell-based; settings: Homo sapiens, LoVo/DX, 72 h
[4] = system: MCF7; test: Antiproliferative activity against human MCF-7 cells incubated for 72 hrs by SRB assay; settings: MCF7, 72 h
[5] = system: A549; test: Antiproliferative activity against human A549 cells incubated for 72 hrs by SRB assay; type: functional, cell-based; settings: A549, 72 h
[6] = system: BALB/3T3; test: Antiproliferative activity against mouse BALB/3T3 cells incubated for 72 hrs by SRB assay; type: ADME, cell-based; settings: BALB/3T3, 72 h
[7] = system: LoVo; test: Antiproliferative activity against human LoVo cells incubated for 72 hrs by SRB assay; type: functional, cell-based
[8] = system: ALL5; test: Cell cycle arrest in human ALL-5 cells assessed as accumulation at sub-G1 phase after 24 hrs at 5 times of IC50 by propidium iodide staining-based flow cytometric analysis relative to control; type: functional
[9] = system: ALL5; test: Induction of apoptosis in human ALL-5 cells assessed as increase in PARP cleavage at 43 nM incubated for 48 hrs by Western blot analysis relative to control; type: functional, cell-based
[10] = system: ALL5; test: Induction of apoptosis in human ALL-5 cells assessed as increase in PARP cleavage at 23 nM incubated for 48 hrs by Western blot analysis relative to control; type: functional, cell-based
[11] = system: ALL5; test: Induction of apoptosis in human ALL-5 cells assessed as increase in PARP cleavage at 45 nM incubated for 48 hrs by Western blot analysis relative to control; type: functional, cell-based
[12] = system: ALL5; test: Induction of apoptosis in human ALL-5 cells assessed as increase in PARP cleavage at 0.2 uM incubated for 24 hrs by Western blot analysis relative to control

| SMILES | IC50 [1] [nM] | Ratio IC50 [2] | IC50 [3] [nM] | IC50 [4] [nM] | IC50 [5] [nM] | IC50 [6] [nM] | IC50 [7] [nM] | Activity [8] | Activity [9] | Activity [10] | Activity [11] | Activity [12] |
| --- | --- | --- | --- | --- | --- | --- | --- | --- | --- | --- | --- | --- |
| COCC(=O)N[C@H]1CCc2c(I)c(OC)c(OC)c(OC)c2-c2ccc(SC)c(=O)cc21 | 15 | 13.2 | 92.2 | 10.5 | 10.5 | 51.2 | 7 |  |  |  |  |  |
| COc1c(I)c2c(c(OC)c1OC)-c1ccc(SC)c(=O)cc1[C@@H](NC(=O)c1ccccc1)CC2 | 25.4 | 10.2 | 72.9 | 47.5 | 13.3 | 76.2 | 7.2 |  |  |  |  |  |
| CCCCCCCCCC(=O)N[C@H]1CCc2cc(OC)c(OC)c(OC)c2-c2ccc(SC)c(=O)cc21 | 27.3 | 11.2 | 84.6 | 66.3 | 13.3 | 87.2 | 7.6 |  |  |  |  |  |
| CCN(CC)C(=O)N[C@H]1CCc2c(I)c(OC)c(OC)c(OC)c2-c2ccc(SC)c(=O)cc21 | 81.9 | 12.3 | 794 | 94.7 | 81.3 | 107 | 64.6 |  |  |  |  |  |
| COc1c(I)c2c(c(OC)c1OC)-c1ccc(SC)c(=O)cc1[C@@H](NC(C)=O)CC2 | 8.7 | 91.7 |  |  |  |  | 7.4 | Active |  |  |  |  |
| COc1cc2c(c(OC)c1OC)-c1ccc(OC)c(=O)cc1[C@@H](NC(C)=O)CC2 [COLCHICINE] | 8.6 |  |  |  |  | 106 |  |  | Active |  |  |  |
| COc1c(I)c2c(c(OC)c1OC)-c1ccc(SC)c(=O)cc1[C@@H](NC(=O)C(C)C)CC2 | 19.9 | 13 | 91.3 | 44.5 | 62.6 | 69.7 | 7 |  |  |  |  |  |
| CCN(CC)C(=O)N[C@H]1CCc2cc(OC)c(OC)c(OC)c2-c2ccc(SC)c(=O)cc21 | 17.4 | 16 | 1100 | 113 | 133 | 88.2 | 69.1 |  |  |  |  |  |
| COCC(=O)N[C@H]1CCc2cc(OC)c(OC)c(OC)c2-c2ccc(SC)c(=O)cc21 | 8.5 | 16 | 132 | 12.7 | 13.5 | 12 | 8.2 |  |  |  |  |  |
| CCC(=O)N[C@H]1CCc2cc(OC)c(OC)c(OC)c2-c2ccc(SC)c(=O)cc21 | 4.6 | 19.1 | 163 | 12.4 | 13.2 | 17.9 | 8.5 |  |  | Active |  |  |
| COc1cc2c(c(OC)c1OC)-c1ccc(SC)c(=O)cc1[C@@H](NC(=O)CCCCl)CC2 | 5.9 | 12.2 | 102 | 11.9 | 13.3 | 20.2 | 8.4 | Active |  |  |  |  |
| COc1cc2c(c(OC)c1OC)-c1ccc(SC)c(=O)cc1[C@@H](NC(=O)c1ccccc1)CC2 | 5.7 | 10.4 | 57.9 | 11.2 | 11.2 | 21.6 | 5.6 |  |  |  |  |  |
| CCC(=O)N[C@H]1CCc2c(I)c(OC)c(OC)c(OC)c2-c2ccc(SC)c(=O)cc21 | 9 | 23.3 | 168 | 10.8 | 11.4 | 39.6 | 7.2 |  |  |  | Active |  |
| COc1cccc2c1C(=O)c1c(O)c3c(c(O)c1C2=O)C[C@@](O)(C(=O)CO)C[C@@H]3O[C@H]1C[C@H](N)[C@H](O)[C@H](C)O1 [DOXORUBICIN] |  |  | 4750 |  | 258 |  |  |  |  |  |  | Active |
| COc1c(I)c2c(c(OC)c1OC)-c1ccc(SC)c(=O)cc1[C@@H](N)CC2 | 135 | 6.7 | 844 | 1700 | 866 | 1420 | 126 |  |  |  |  |  |
| COc1c(I)c2c(c(OC)c1OC)-c1ccc(OC)c(=O)cc1[C@@H](NC(C)=O)CC2 | 15.5 | 278 | 2780 | 97.7 | 93.9 | 135 | 10.2 |  |  |  |  |  |
| COc1c(I)c2c(c(OC)c1OC)-c1ccc(SC)c(=O)cc1[C@@H](NC(=O)CCCCl)CC2 | 47.5 | 13.5 | 529 | 89.4 | 82.8 | 87.8 | 39.2 |  |  |  |  |  |
| COc1cc2c(c(OC)c1OC)-c1ccc(SC)c(=O)cc1[C@@H](NC(=O)C(C)C)CC2 | 5.5 | 19.3 | 174 | 13.5 | 15.8 | 69.9 | 9 | Active |  |  |  |  |
| CCCCCCCCCC(=O)N[C@H]1CCc2c(I)c(OC)c(OC)c(OC)c2-c2ccc(SC)c(=O)cc21 | 615 | 6.8 | 3870 | 846 | 833 | 305 | 568 |  |  |  |  |  |
